Measurements as given in patent publication JPH0770139A, “2−(モノ又はジ置換−6，7−ジヒドロ−5H−ピラゾロ[1，2−a]ピラゾリウム−6−イル)チオ−カルバペネム誘導体” (Lederle Japan Ltd, priority 1993, dated 1994).

Each compound was assayed on male CrjCD(SD) mice [CrjCD(SD)系雄性マウス] (assay: Toxicity test (subcutaneous administration to mice, 1 week observation)). Settings: 500mg/kg, 10 male CrjCD(SD) mice, body weight 20-23 g, observation for 1 week.
Type: in vivo, mouse

For `C[C@@H](O)[C@H]1C(=O)N2C(C(=O)[O-])=C(SC3Cn4cc(C(=O)N(C)C)c[n+]4C3)[C@H](C)[C@H]12` (stereo partly drawn) [化合物(28), (1R,5S,6S)−2−{[6,7−ジヒドロ−2−(N,N−ジメチルカルバモイル)−5H−ピラゾロ[1.2−a]ピラゾリウム−6−イル]チオ}−6−[(R)−ヒドロキシエチル]−1−メチルカルバペン−2−エム−3−カルボキシレート], which survival without abnormality is on record?
The survival without abnormality was “すべて異常なく生存した”.

How did the survival without abnormality turn out when `C[C@@H](O)[C@H]1C(=O)N2C(C(=O)[O-])=C(SC3Cn4cc(F)c[n+]4C3)[C@H](C)[C@H]12` (stereo partly drawn) [化合物(30), (1R,5S,6S)−2−[(6,7−ジヒドロ−2−フルオロ−5H−ピラゾロ[1.2−a]ピラゾリウム−6−イル)チオ]−6−[(R)−1−ヒドロキシエチル]−1−メチルカルバペン−2−エム−3−カルボキシレート] was run?
Its survival without abnormality is “すべて異常なく生存した”.

With `Cc1cc(C)[n+]2n1CC(SC1=C(C(=O)[O-])N3C(=O)[C@H]([C@@H](C)O)[C@H]3[C@H]1C)C2` (stereo partly drawn) [化合物(26), (1R,5S,6S)−2−[(6,7−ジヒドロ−1,3−ジメチル−5H−ピラゾロ[1,2−a]ピラゾリウム−6−イル)チオ]−6−[(R)−1−ヒドロキシエチル]−1−メチル−カルバペン−2−エム−3−カルボキシレート] as the compound, how does the survival without abnormality read?
Its survival without abnormality is “すべて異常なく生存した”.
